From article PMC7051966, “Substrate Specific Inhibitor Designed against the Immunomodulator GMF-beta Reversed the Experimental Autoimmune Encephalomyelitis” (Scientific Reports, 2020) come the findings set out here.

The assay concerns the target T1, hGMF-β (human glia maturation factor-β) (Homo sapiens, UniProt P60983).
T1 construct: gene GMFB; amine-coupled to CM5 chip
The assay can be described thus: SPR (Biacore T200), GMF-β immobilised on CM5 chip, […] fit. The assay is classed as binding. In general terms: SPR reads the build-up and loss of mass on a sensor chip optically.

pKd: −log10 of the molar value.

T1 sequence (P60983 2-142): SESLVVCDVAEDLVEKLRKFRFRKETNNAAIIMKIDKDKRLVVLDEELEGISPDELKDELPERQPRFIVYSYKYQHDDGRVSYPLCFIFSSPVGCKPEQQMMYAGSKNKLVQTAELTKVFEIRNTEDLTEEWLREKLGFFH

The compound `OCc1cccc2[nH]ncc12` [II, 1-H-indazole-4yl methanol] had a pKd of 4.70.

By pKd is commonly meant the Kd on a negative log10 scale, so that one unit is a factor of ten.
